Reference: publication PMC5140066, “Electrophysiological Characteristics of Human iPSC-Derived Cardiomyocytes for the Assessment of Drug-Induced Proarrhythmic Potential” (PLoS ONE, 2016)

Key:
[1] = system: dogs with subacute myocardial infarction; set-up: method as in PMID 11005588; settings: cited from earlier work
[2] = system: human ventricular myocytes; set-up: method as in PMID 9709405; settings: independent of the underlying pacing rate; cited from earlier work
[3] = system: human induced pluripotent stem cell-derived cardiomyocytes (hiPSC-CMs); test: Field potential recording of hiPSC-CM sheets on multi-electrode array (MEA); type: cell-based
Experimental: The cells were thawed and suspended in iCell Cardiomyocytes Plating Medium (Cellular Dynamics International), then plated (approximately 2 × 10^6 cells/well) in 6-well tissue-culture plates coated with 0.1% gelatin. After two days of incubation at 37°C under an atmosphere of 5% CO2, the plating medium was replaced with iCell Cardiomyocytes Maintenance Medium (Cellular Dynamics International); this medium was used as the culture medium throughout the experiments and was replaced every 1 to 3 days. The cells were cultured for 7 to 14 days in a 5% CO2 incubator at 37°C and then re-plated onto MEA probes (MED-P515A or MED-PG515A; Alpha Med Scientific, Osaka, Japan).
The recording areas of the MEA probes were coated with fibronectin (Becton Dickinson, Franklin Lakes, NJ, USA; Invitrogen, Carlsbad, CA, USA; Corning, Corning, NY, USA). Fibronectin was dissolved in distilled water or Dulbecco's phosphate-buffered saline (PBS) [−] to give 50 μg/mL, the recording areas were covered with 2 μL fibronectin solution, and then the MEA probes were incubated at 37°C for at least 1 h. […] After discarding the fibronectin solution from the MEA probes without complete drying, the cell suspension at a density of 3.0 × 10^4 cells in a 2 μL droplet was re-plated onto the fibronectin-coated area of each MEA probe and incubated for 1 to 3 h in a 5% CO2 incubator at 37°C. Each well of the MEA probes was then filled with maintenance medium at a volume of 1 mL/well. The medium was replaced every 1 to 3 days thereafter, and the cells were cultured for 5 to 14 days to obtain high density cardiomyocyte-sheets with spontaneous and synchronous electrical activities.
Prior to recording FPs, the cardiomyocyte-sheets were equilibrated for at least 30 min in a 5% CO2 incubator at 37°C in fresh culture medium. The MEA probes were then transferred to a FP measurement apparatus (MED64 system; Alpha Med Scientific, Osaka, Japan) and covered with a lid through which humidified gas containing 5% CO2 was provided. […] Analogue FP signals from the spontaneously beating cardiomyocyte-sheets were acquired through a 0.1-Hz high-pass filter and a 5-kHz low-pass filter, and digitized at 20 kHz using the MED64 system. […] Compound stock solutions were prepared using DMSO at 1000-fold the target concentrations of the test compounds. The stock solutions were diluted with the maintenance medium to obtain the appropriate compound concentrations, then 1/10th to 1/50th the volume of the medium in the wells was exchanged with an equal volume of the compound-containing medium. The compounds were applied in a cumulative manner to the wells. The concentration of DMSO was 0.5–0.6% at the highest concentration of the test compounds. […] FPD (ms) and ISI (ms) were analyzed using Mobius QT software designed by WitWerx (Santa Cruz, CA, USA) (Fig 1b).
Baseline FP waveforms that met the following criteria were used for analysis. […] In the FP signals, EAD and TA were defined as slow negative spikes and a sharp deflection with an amplitude ≥ ± 100 μV, respectively (Fig 1c). EAD, TA or both usually appear during or after the second positive deflection. ISI, FPD and FPDcF were not calculated for concentrations in which EAD or TA were observed.
As previously mentioned, total 96 data equally from 4 facilities each were used for the analysis (24 data per facility). […] The root mean squared prediction error (RMSE) was used to show the level of accuracy of the equation predicted for the observed data (Fig 2). With categorical data analysis of FPD, inter-facilities differences were investigated with Kruskal-Wallis test (Fig 4).

[4] = system: guinea pig ventricular myocytes; set-up: method as in PMID 9709405; settings: independent of the underlying pacing rate; cited from earlier work

CCS(=O)(=O)N(C)[C@H]1c2cc(C#N)ccc2OC(C)(C)[C@@H]1O (racemic) [Chromanol 293B]
Effect on effective refractory periods [1]: prolonged effective refractory periods in a rate-dependent manner
Prolongation of APD90 [2]: about 30%
EADs and/or TAs ([3]; at concentrations up to 30 μM): not observed
Slope factor of FPD-ISI regression, % change ([3]; chromanol 293B 1 μM): 0.9162
Slope factor of FPD-ISI regression, % change ([3]; chromanol 293B 30 μM): 0.9066
Slope factor of FPD-ISI regression, absolute FPD (ms) ([3]; chromanol 293B 30 μM (sham 0.1674)): 0.4182
Effect on FPD ([3]; cumulative application): prolonged FPD in a concentration-dependent manner
Use (rate) dependence of FPD prolongation ([3]; from FPD-ISI plots): prolonged FPD in a rate-independent manner
Prolongation of APD90 [4]: about 30%
